These results are taken from ChEMBL document CHEMBL2016440, “Overcoming fluconazole resistance in Candida albicans clinical isolates with tetracyclic indoles” (Bioorg Med Chem Lett, 2012).

Activity calls are given as the source filed them. The calls are words filed in the database; no cut-off is given here.

Data set [1] concerns Candida albicans. As to the kind of experiment: Antifungal activity against fluconazole-resistant Candida albicans isolate 2 assessed as growth inhibition after 48 hrs by alamar blue fluorescence assay in presence of 8 ug/ml fluconazole. Particulars: isolate 2, 48 h. The format is functional, organism-based. On the technique in general: Alamar Blue is a resazurin reagent that responds to reducing activity.

In data set [2] the test system is Candida albicans. The data set is described as follows: Antifungal activity against fluconazole-resistant Candida albicans isolate 8 assessed as growth inhibition after 48 hrs by alamar blue fluorescence assay in presence of 8 ug/ml fluconazole. The format is functional, organism-based. The settings on record: isolate 8, 48 h.
In data set [3] the test system is Candida albicans. As to the kind of experiment: Antifungal activity against fluconazole-sensitive Candida albicans SC5314 assessed as growth inhibition at 7.5 ug/ml after 24 hrs by alamar blue fluorescence assay. The data set is classed as functional, organism-based.
Data set [4] has as its system NIH3T3. The data set is described as follows: Cytotoxicity against mouse 3T3 cells. The format is cell-based.
Data set [5] deals with Candida albicans. As to the kind of experiment: Antifungal activity against fluconazole-sensitive Candida albicans SC5314 assessed as growth inhibition at 7.5 ug/ml after 24 hrs by alamar blue fluorescence assay in presence of fluconazole. Particulars: SC5314, 24 h, read-out: GI. The format is functional.
Data set [6] has as its system Candida albicans. The data set is described as follows: Antifungal activity against Candida albicans assessed as growth inhibition after 48 hrs by alamar blue fluorescence assay. The data set is classed as functional, organism-based.
For data set [7], the system named is Candida albicans. As to the kind of experiment: Antifungal activity against fluconazole-sensitive Candida albicans SC5314 assessed as growth inhibition at 8 ug/ml after 24 hrs by alamar blue fluorescence assay. The format is functional, organism-based.
For data set [8], the system named is NIH3T3. As to the kind of experiment: Cytotoxicity against mouse 3T3 cells at 0.2 to 26 uM. The settings on record: nih3t3, 26 µM. The data set is classed as cell-based.
Data set [9] relates to Candida albicans. The data set is described as follows: Antifungal activity against fluconazole-sensitive Candida albicans SC5314 assessed as growth inhibition at 1 ug/ml after 24 hrs by alamar blue fluorescence assay. The format is functional, organism-based.

As a reminder, the IC50 is the concentration at which inhibition is half-maximal. In the case of `O=C(Cn1c2ccccc2c2nc3n(c(=O)c21)CCS3)N1CCC(F)(F)CC1`, the IC50 in the data set with Candida albicans [1] was above 10 µM; in the data set with Candida albicans [2], above 26 µM.

Turning to `O=C(Cn1c2ccccc2c2nc3n(c(=O)c21)CCS3)NCCc1ccc(Cl)cc1`, the results for the IC50 in the data set on Candida albicans [1] and in the data set on Candida albicans [2] were above 10 µM and 23.4 µM, respectively.

Take `Oc1c2nc3ccccc3c-2nc2n1CCS2`: the figures for the IC50 in the data set on Candida albicans [1] and with Candida albicans [2] were above 10 µM and 15.7 µM, respectively.

For `O=C(Cn1c2ccccc2c2nc3n(c(=O)c21)CCS3)N1CCC(F)(F)C1`, the IC50 is 5.9 µM in the data set with Candida albicans [1] and 10.2 µM in the data set with Candida albicans [2].

Consider `O=C(Cn1c2ccccc2c2ccncc21)N1CCCCC1`, for which the IC50 with Candida albicans [1] and in the data set on Candida albicans [2] was above 26 µM each time.

Turning to `CN1CCN(C(=O)Cn2c3ccccc3c3nc4n(c(=O)c32)CCS4)CC1`, the IC50 was 7.1 µM in the data set on Candida albicans [1] and 22.5 µM with Candida albicans [2].

Take `O=C(Cn1c2ccc(F)cc2c2nc3n(c(=O)c21)CCS3)N1CCCCCC1`: the concentration for half-maximal inhibition (IC50) in the data set with Candida albicans [1] was 2.2 µM; with Candida albicans [2], above 26 µM.

Consider `O=C(O)Cn1c2ccccc2c2nc3n(c(=O)c21)CCS3`, for which the values for the IC50 in the data set with Candida albicans [1] and with Candida albicans [2] were above 10 µM and above 26 µM, respectively.

As to `Oc1c2nc3ccc(F)cc3c-2nc2n1CCS2`, the IC50 in the data set with Candida albicans [1] is 3.8 µM; in the data set with Candida albicans [2], 7.1 µM.

In the case of `COC(=O)Cn1c2ccccc2c2nc3n(c(=O)c21)CCS3`, the IC50 with Candida albicans [1] was found to be 7.9 µM; in the data set on Candida albicans [2] it was 13.3 µM.

`O=C(Cn1c2ccccc2c2nc3n(c(=O)c21)CCS3)N1CCOCC1`: the IC50 is 4.3 µM in the data set on Candida albicans [1] and 6.6 µM in the data set with Candida albicans [2].

In the case of `O=C(Cn1c2ccccc2c2nc3n(c(=O)c21)CCS3)N1CC=CC1`, the results for the IC50 with Candida albicans [1] and with Candida albicans [2] were 1.8 µM and 3.1 µM, respectively.

For `O=C(Cn1c2ccc(F)cc2c2nc3n(c(=O)c21)CCS3)N1CCCCC1`, the IC50 with Candida albicans [1] was 0.5 µM; with Candida albicans [2], above 26 µM.

For `O=C(O)Cn1c2ccc(F)cc2c2nc3n(c(=O)c21)CCS3`, the IC50 in the data set with Candida albicans [1] and with Candida albicans [2] was above 26 µM each time.

For the compound `CCN(CC)C(=O)Cn1c2ccc(F)cc2c2nc3n(c(=O)c21)CCS3`, the IC50 with Candida albicans [1] is 0.5 µM; with Candida albicans [2], above 26 µM.

As for `COC(=O)Cn1c2ccc(F)cc2c2nc3n(c(=O)c21)CCS3`, the 50% inhibitory concentration (IC50) in the data set on Candida albicans [1] is 3.5 µM; in the data set with Candida albicans [2] it was 6 µM.

Take `CC1CCN(C(=O)Cn2c3ccccc3c3nc4n(c(=O)c32)CCCS4)CC1`: the IC50 turned out to be 12.1 µM in the data set on Candida albicans [1] and 21.3 µM in the data set with Candida albicans [2].

`CCN(CC)C(=O)Cn1c2ccccc2c2nc3n(c(=O)c21)CCS3`: the IC50 is 2.3 µM in the data set with Candida albicans [1] and above 26 µM with Candida albicans [2].

Regarding `O=C(Cn1c2ccccc2c2nc3n(c(=O)c21)CCS3)N1CCCC1`, in the data set on Candida albicans [3], the “growth inhibition (GI)” value is “inactive”. In addition, the IC50 in the data set on Candida albicans [1] was 1.1 µM; with NIH3T3 [4], above 26 µM; in the data set on Candida albicans [2], 1.9 µM; in the data set with Candida albicans [6] it was above 26 µM. Further, the inhibition of growth at 7.5 µg/mL in the data set with Candida albicans [5] was 96%.

As to `O=C(Cn1c2ccc(F)cc2c2nc3n(c(=O)c21)CCS3)N1CCCC1`, the half-maximal inhibitory concentration (IC50) in the data set on Candida albicans [1] amounted to 0.6 µM; in the data set with Candida albicans [2] it was 18.9 µM.

As to `COc1ccc2c(c1)c1nc3n(c(=O)c1n2CC(=O)N1CCC(C)CC1)CCS3`, the IC50 in the data set with Candida albicans [1] and with Candida albicans [2] was above 26 µM each time.

Take `COc1ccc(NC(=O)Cn2c3ccccc3c3nc4n(c(=O)c32)CCS4)cc1`: the IC50 was above 10 µM in the data set with Candida albicans [1] and above 26 µM in the data set with Candida albicans [2].

In the case of `OC(Cn1cncn1)(Cn1cncn1)c1ccc(F)cc1F`, the “growth inhibition (GI)” value with Candida albicans [7] is “inactive”.

For `CC1CCN(C(=O)Cn2c3ccccc3c3nc4n(c(=O)c32)CCS4)CC1`, in the data set with NIH3T3 [8], the Activity result is recorded as “Non-toxic”. Besides, the values for the IC50 in the data set on Candida albicans [1], with NIH3T3 [4] and in the data set on Candida albicans [2] were 3.2 µM, above 26 µM and 5.5 µM, respectively.

In the case of `O=C(Cn1c2ccccc2c2nc3n(c(=O)c21)CCS3)N1CCCCC1`, the figures for the half-maximal inhibitory concentration (IC50) in the data set on Candida albicans [1] and in the data set on Candida albicans [2] were 1.9 µM and 2.9 µM, respectively.

Regarding `O=C(Cn1c2ccc(F)cc2c2nc3n(c(=O)c21)CCS3)N1CCC(F)(F)CC1`, the 50% inhibitory concentration (IC50) in the data set on Candida albicans [1] is 0.7 µM; in the data set on Candida albicans [2] it was above 26 µM.

On to `COc1ccc2c(c1)c1nc3n(c(=O)c1n2CC(=O)N1CCC(Cc2ccccc2)CC1)CCS3`, for which the IC50 with Candida albicans [1] and in the data set on Candida albicans [2] was above 26 µM each time.

With `C[C@@H]1[C@H](O)[C@@H](C)/C=C/C=C/C=C/C=C/C=C/C=C/C=C/[C@H](O[C@@H]2O[C@H](C)[C@@H](O)[C@H](N)[C@@H]2O)C[C@@H]2O[C@](O)(C[C@@H](O)C[C@@H](O)[C@H](O)CC[C@@H](O)C[C@@H](O)CC(=O)O[C@H]1C)C[C@H](O)[C@H]2C(=O)O`, the “growth inhibition (GI)” value with Candida albicans [9] is “Active”.

For `CC1CCN(CCn2c3ccccc3c3nc4n(c(=O)c32)CCS4)CC1`, the figures for the IC50 in the data set on Candida albicans [1] and in the data set on Candida albicans [2] were above 10 µM and above 26 µM, respectively.

Consider `CC1(O)CN(C(=O)Cn2c3ccccc3c3nc4n(c(=O)c32)CCS4)C1`, for which the IC50 was above 10 µM in the data set on Candida albicans [1] and above 26 µM in the data set with Candida albicans [2].

Turning to `O=C(Cn1c2ccc(F)cc2c2nc3n(c(=O)c21)CCS3)N1CCC(F)(F)C1`, the IC50 in the data set on Candida albicans [1] and in the data set with Candida albicans [2] was 1.1 µM throughout.

Regarding `O=C(Cn1c2ccc(F)cc2c2nc3n(c(=O)c21)CCS3)N1CC=CC1`, the values for the half-maximal inhibitory concentration (IC50) with Candida albicans [1] and in the data set with Candida albicans [2] were 0.5 µM and above 26 µM, respectively.

`CC1CCN(C(=O)Cn2c3ccc(F)cc3c3nc4n(c(=O)c32)CCCS4)CC1`: the IC50 in the data set on Candida albicans [1] stood at 2.7 µM; in the data set on Candida albicans [2], 11.7 µM.
